≈ marks a conversion by molar mass, not a printed value.
Legend:
Type in all cases: functional
Escherichia coli [1] = assay: Antibacterial activity against Escherichia coli MG1655; conditions: K-12 substr. MG1655
Enterococcus faecium [2] = assay: Antibacterial activity against Enterococcus faecium ATCC 19434
Staphylococcus aureus [3] = assay: Antibacterial activity against methicillin-resistant Staphylococcus aureus 1201984
Enterococcus faecium [4] = assay: Antibacterial activity against vancomycin-resistant Enterococcus faecium R1
Staphylococcus aureus [5] = assay: Antibacterial activity against PVL positive Staphylococcus aureus
Staphylococcus aureus [6] = assay: Antibacterial activity against methicillin-resistant Staphylococcus aureus USA300 BAA-1556
Staphylococcus aureus [7] = assay: Antibacterial activity against linezolid-resistant Staphylococcus aureus O-128
Enterococcus faecium [8] = assay: Antibacterial activity against vancomycin-resistant Enterococcus faecium 6A
Staphylococcus aureus [9] = assay: Antibacterial activity against Staphylococcus aureus ATCC 29213
Staphylococcus aureus [10] = assay: Antibacterial activity against methicillin-resistant Staphylococcus aureus 562
Enterococcus faecium [11] = assay: Antibacterial activity against Enterococcus faecium 575
Enterococcus faecium [12] = assay: Antibacterial activity against vancomycin-resistant Enterococcus faecium 134
Enterococcus faecium [13] = assay: Antibacterial activity against Enterococcus faecium ATCC 35667
Staphylococcus aureus [14] = assay: Antibacterial activity against […] Staphylococcus aureus ATCC 13709 SMITH
Staphylococcus aureus [15] = assay: Antibacterial activity against Staphylococcus aureus FDA 209P
[16] = tested on: Staphylococcus epidermidis; assay: Antibacterial activity against linezolid-resistant Staphylococcus epidermidis 1117174
Enterococcus faecium [17] = assay: Antibacterial activity against Enterococcus faecium 45/146
Escherichia coli [18] = assay: Antibacterial activity against TolC-deficient Escherichia coli
Enterococcus faecium [19] = assay: Antibacterial activity against vancomycin-resistant Enterococcus faecium 03080 DS
Enterococcus faecalis [20] = assay: Antibacterial activity against Enterococcus faecalis ATCC 29212
Enterococcus faecalis [21] = assay: Antibacterial activity against Enterococcus faecalis ATCC 51299
[22] = tested on: Staphylococcus epidermidis; assay: Antibacterial activity against linezolid-resistant Staphylococcus epidermidis 1089191
Staphylococcus aureus [23] = assay: Antibacterial activity against Staphylococcus aureus Mu50 ATCC 700699
Enterococcus faecium [24] = assay: Antibacterial activity against vancomycin-resistant Enterococcus faecium 31/132
Enterococcus faecium [25] = assay: Antibacterial activity against Enterococcus faecium NLNZ 572
Enterococcus faecalis [26] = assay: Antibacterial activity against linezolid-resistant Enterococcus faecalis ATCC 29212
[27] = tested on: Staphylococcus epidermidis; assay: Antibacterial activity against methicillin-resistant Staphylococcus epidermidis ATCC 35984
Staphylococcus aureus [28] = assay: Antibacterial activity against methicillin-resistant Staphylococcus aureus DB-00026
[29] = tested on: Staphylococcus epidermidis; assay: Antibacterial activity against Staphylococcus epidermidis ATCC 12228
Enterococcus faecium [30] = assay: Antibacterial activity against vancomycin-resistant Enterococcus faecium 32/133
Enterococcus faecalis [31] = assay: Antibacterial activity against Enterococcus faecalis ATCC 19434
Enterococcus faecium [32] = assay: Antibacterial activity against linezolid-resistant Enterococcus faecium 303

COC(=O)NC[C@H]1CN(c2ccc(-c3ccc4c(c3)CC3(C(=O)NC(=O)NC3=O)C3CCCN43)c(F)c2)C(=O)O1 (some centres undefined)
MIC (Escherichia coli [1]): > 32 µg/mL | MIC (Enterococcus faecium [2]): 16 µg/mL (≈ 29 µM) | MIC (Staphylococcus aureus [3]): 2 µg/mL (≈ 3.63 µM) | MIC (Enterococcus faecium [4]): 8 µg/mL (≈ 14.5 µM) | MIC (Staphylococcus aureus [5]): 2 µg/mL (≈ 3.63 µM) | MIC (Staphylococcus aureus [6]): 4 µg/mL (≈ 7.25 µM) | MIC (Staphylococcus aureus [7]): 16 µg/mL (≈ 29 µM) | MIC (Enterococcus faecium [8]): 8 µg/mL (≈ 14.5 µM) | MIC (Staphylococcus aureus [9]): 2 µg/mL (≈ 3.63 µM) | MIC (Staphylococcus aureus [10]): 2 µg/mL (≈ 3.63 µM) | MIC (Enterococcus faecium [11]): 16 µg/mL (≈ 29 µM) | MIC (Enterococcus faecium [12]): 16 µg/mL (≈ 29 µM) | MIC (Enterococcus faecium [13]): 8 µg/mL (≈ 14.5 µM) | MIC (Staphylococcus aureus [14]): > 32 µg/mL | MIC (Staphylococcus aureus [15]): 4 µg/mL (≈ 7.25 µM) | MIC [16]: 32 µg/mL (≈ 58 µM) | MIC (Enterococcus faecium [17]): 8 µg/mL (≈ 14.5 µM) | MIC (Escherichia coli [18]): 4 µg/mL (≈ 7.25 µM) | MIC (Enterococcus faecium [19]): 8 µg/mL (≈ 14.5 µM) | MIC (Enterococcus faecalis [20]): 8 µg/mL (≈ 14.5 µM) | MIC (Enterococcus faecalis [21]): 8 µg/mL (≈ 14.5 µM) | MIC [22]: 32 µg/mL (≈ 58 µM) | MIC (Staphylococcus aureus [23]): 2 µg/mL (≈ 3.63 µM) | MIC (Enterococcus faecium [24]): 16 µg/mL (≈ 29 µM) | MIC (Enterococcus faecium [25]): 32 µg/mL (≈ 58 µM) | MIC (Enterococcus faecalis [26]): 16 µg/mL (≈ 29 µM) | MIC [27]: 2 µg/mL (≈ 3.63 µM) | MIC (Staphylococcus aureus [28]): 4 µg/mL (≈ 7.25 µM) | MIC [29]: 2 µg/mL (≈ 3.63 µM) | MIC (Enterococcus faecium [30]): 16 µg/mL (≈ 29 µM) | MIC (Enterococcus faecalis [31]): 16 µg/mL (≈ 29 µM) | MIC (Enterococcus faecium [32]): > 32 µg/mL

O=C1NC(=O)C2(Cc3cc(-c4ccc(N5C[C@H](CO)OC5=O)cc4F)ccc3N3CCCCC32)C(=O)N1 (some centres undefined)
MIC (Escherichia coli [1]): > 32 µg/mL | MIC (Enterococcus faecium [2]): 2 µg/mL (≈ 3.93 µM) | MIC (Staphylococcus aureus [3]): 2 µg/mL (≈ 3.93 µM) | MIC (Enterococcus faecium [4]): 0.25 µg/mL (≈ 0.492 µM) | MIC (Staphylococcus aureus [5]): 2 µg/mL (≈ 3.93 µM) | MIC (Staphylococcus aureus [6]): 4 µg/mL (≈ 7.87 µM) | MIC (Staphylococcus aureus [7]): 16 µg/mL (≈ 31.5 µM) | MIC (Enterococcus faecium [8]): 1 µg/mL (≈ 1.97 µM) | MIC (Staphylococcus aureus [9]): 4 µg/mL (≈ 7.87 µM) | MIC (Staphylococcus aureus [10]): 2 µg/mL (≈ 3.93 µM) | MIC (Enterococcus faecium [11]): 2 µg/mL (≈ 3.93 µM) | MIC (Enterococcus faecium [12]): 2 µg/mL (≈ 3.93 µM) | MIC (Enterococcus faecium [13]): 1 µg/mL (≈ 1.97 µM) | MIC (Staphylococcus aureus [14]): 16 µg/mL (≈ 31.5 µM) | MIC (Staphylococcus aureus [15]): 4 µg/mL (≈ 7.87 µM) | MIC [16]: 32 µg/mL (≈ 62.9 µM) | MIC (Enterococcus faecium [17]): 1 µg/mL (≈ 1.97 µM) | MIC (Escherichia coli [18]): 4 µg/mL (≈ 7.87 µM) | MIC (Enterococcus faecium [19]): 1 µg/mL (≈ 1.97 µM) | MIC (Enterococcus faecalis [20]): 2 µg/mL (≈ 3.93 µM) | MIC (Enterococcus faecalis [21]): 1 µg/mL (≈ 1.97 µM) | MIC [22]: > 32 µg/mL | MIC (Staphylococcus aureus [23]): 2 µg/mL (≈ 3.93 µM) | MIC (Enterococcus faecium [24]): 2 µg/mL (≈ 3.93 µM) | MIC (Enterococcus faecium [25]): 4 µg/mL (≈ 7.87 µM) | MIC (Enterococcus faecalis [26]): 2 µg/mL (≈ 3.93 µM) | MIC [27]: ≤ 1 µg/mL | MIC (Staphylococcus aureus [28]): 4 µg/mL (≈ 7.87 µM) | MIC [29]: 2 µg/mL (≈ 3.93 µM) | MIC (Enterococcus faecium [30]): 2 µg/mL (≈ 3.93 µM) | MIC (Enterococcus faecalis [31]): 2 µg/mL (≈ 3.93 µM) | MIC (Enterococcus faecium [32]): 8 µg/mL (≈ 15.7 µM)

From ChEMBL document CHEMBL4219129, “Design, synthesis and biological evaluation of spiropyrimidinetriones oxazolidinone derivatives as antibacterial agents” (2018)
